{"source": "patent US8034574B2", "about": "“Screening method for prokinetic agent” (Astellas Pharma Inc., priority 2006, dated 2011)", "key": {"RIN14B cells": {"tested_on": "RIN14B cells", "assay": "Channel activity in RIN14B cells using calcium-sensitive fluorescent reagent (FLIPR)", "format": "cell-based, rat", "conditions": "RIN14B cells, Fluo3-AM", "protocol": "RIN14B cells (5×10^4 cells), wherein the expression of TRPA1 was confirmed in Example 10, were incubated in the presence of a calcium-sensitive fluorescent reagent (Fluo3-AM; DOJINDO) at 37° C. for 1 hour to thereby incorporate the calcium-sensitive fluorescent reagent in the cells, after which the cells were washed with physiological saline to remove the calcium-sensitive fluorescent reagent that had not been incorporated in the cells. To the cells obtained, physiological saline supplemented with allyl isothiocyanate, cinnamic aldehyde, or acrolein was added; the fluorescence emitted by the cells was measured over time. The above-described measurements were performed using an automated fluorescence detection apparatus (FLIPR; Molecular Device). […] Ruthenium Red was added concurrently and a measurement was performed to determine whether or not calcium inflow in the cells was be inhibited."}, "[1]": {"target": "T1, human TRPA1 (polypeptide of SEQ ID NO:2) (Homo sapiens, UniProt O75762, K186N/R3C/R58T)", "T1 construct": "expressed in transfected cells; host or cells: CHO-K1 cells, transient transfection of the pcDNA3.1(+) human TRPA1 vector", "T1 sequence (O75762 whole entry R3C/R58T/K186N)": "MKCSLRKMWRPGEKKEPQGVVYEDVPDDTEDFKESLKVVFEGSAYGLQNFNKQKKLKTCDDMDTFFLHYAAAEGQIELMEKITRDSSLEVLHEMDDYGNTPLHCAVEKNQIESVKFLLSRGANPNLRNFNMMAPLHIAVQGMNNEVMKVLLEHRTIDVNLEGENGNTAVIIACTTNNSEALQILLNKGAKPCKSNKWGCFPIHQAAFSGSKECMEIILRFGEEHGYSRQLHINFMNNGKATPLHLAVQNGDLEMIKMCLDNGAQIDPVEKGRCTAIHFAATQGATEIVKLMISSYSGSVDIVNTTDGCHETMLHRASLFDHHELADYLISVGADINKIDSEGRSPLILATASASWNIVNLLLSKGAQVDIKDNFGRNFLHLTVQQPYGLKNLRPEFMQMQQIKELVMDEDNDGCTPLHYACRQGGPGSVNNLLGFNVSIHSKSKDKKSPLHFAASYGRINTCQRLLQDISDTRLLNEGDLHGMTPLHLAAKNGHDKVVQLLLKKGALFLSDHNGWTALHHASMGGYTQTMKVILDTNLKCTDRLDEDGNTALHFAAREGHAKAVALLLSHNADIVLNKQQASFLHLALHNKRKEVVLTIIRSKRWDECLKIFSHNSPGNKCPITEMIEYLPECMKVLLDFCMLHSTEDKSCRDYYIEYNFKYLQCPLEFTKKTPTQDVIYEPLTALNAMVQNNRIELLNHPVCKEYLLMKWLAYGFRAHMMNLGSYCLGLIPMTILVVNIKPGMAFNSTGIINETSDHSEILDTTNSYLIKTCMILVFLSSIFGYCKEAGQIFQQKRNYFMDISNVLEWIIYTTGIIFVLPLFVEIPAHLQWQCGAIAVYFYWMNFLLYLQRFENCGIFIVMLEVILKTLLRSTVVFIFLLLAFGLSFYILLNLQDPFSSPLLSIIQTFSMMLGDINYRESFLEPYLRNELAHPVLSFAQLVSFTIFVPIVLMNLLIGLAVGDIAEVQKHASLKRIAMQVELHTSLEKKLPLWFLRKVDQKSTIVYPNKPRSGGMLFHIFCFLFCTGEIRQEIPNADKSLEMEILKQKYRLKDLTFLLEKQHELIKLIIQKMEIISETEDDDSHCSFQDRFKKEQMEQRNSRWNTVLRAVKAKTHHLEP", "assay": "Intracellular calcium by FLIPR in CHO-K1 cells expressing human TRPA1 (activator screening)", "format": "cell-based", "conditions": "CHO-K1 cells expressing human TRPA1; FLIPR, Fluo3-AM", "method": "To detect the TRPA1 channel activity of a polypeptide consisting of the amino acid sequence shown by SEQ ID NO:2, the expression vector obtained in Example 1 above was transfected to animal cells, whereby the aforementioned protein was expressed.\nVarious test samples were added to CHO-K1 cells forced to is transiently express TRPA1 by the transfection operation of Example 2 above, and the resulting changes in intracellular calcium concentration were measured using FLIPR (Molecular Device).\nTo measure the changes in intracellular calcium concentration by FLIPR, the following pre-treatment was performed. First, an assay buffer for adding the fluorescent dye Fluo3-AM (DOJIN) to the cells, or for washing the cells just before performing the FLIPR assay, was prepared. To a solution prepared by adding 20 ml of 1M HEPES (pH 7.4) (Invitrogen) to 1000 ml of HBSS (Invitrogen) (hereinafter, HBSS/HEPES solution), 10 ml of a solution prepared by dissolving 710 mg of probenecid (Sigma) in 5 ml of 1N NaOH and then adding 5 ml of the HBSS/HEPES solution, was added and mixed, and this solution was used as the assay buffer. Next, 50 μg of Fluo3-AM was dissolved in 22 μl of DMSO (DOJIN), and an equal volume of 20% pluronic acid (Molecular Probes) was added and mixed, after which this mixture was added to 10.6 ml of the assay buffer supplemented with 105 μl of fetal bovine serum, whereby a fluorescent dye solution was prepared. […] After this pretreatment was performed, changes in intracellular calcium concentration after addition of the various test samples were measured with the FLIPR.\nCompounds that activate a polypeptide consisting of the amino acid sequence shown by SEQ ID NO:2 (activators) were screened for. As an index of activation, calcium inflow in the cells was detected using a calcium-sensitive fluorescent reagent; specifically, the method described in Example 3 was used."}, "guinea pig ileum": {"tested_on": "guinea pig ileum", "assay": "Isolated guinea pig gut constriction (Magnus, ileum)", "protocol": "Guinea pigs (Hartley strain, male, weighing 300-400 g), under ether anesthesia, were exsanguinated to death by cutting the carotid artery. The ileum was extirpated, about 15-cm portions at both ends were removed, a section 1.5 cm long was cut out from the remaining portion, and incisions were made longitudinally parallelly in the gut to prepare a tabular specimen. This specimen was sandwiched with serrefine at both ends, and suspended with a thread in a Magnus chamber containing 10 ml of a 37° C. Krebs solution (118 mM NaCl, 4.7 mM KCl, 2.5 mM CaCl2, 1.2 mM MgSO4, 1.2 mM KH2PO4, 11 mM D-glucose, 20 mM NaHCO3) aerated with 95% O2-5% CO2 mixed gas. A 1-g load was applied to the specimen, buffers were exchanged at 15-minute intervals, and the specimen was allowed to stand for about 60 minutes to stabilize its tension. Changes in the tension in response to agonist stimulation were measured isometrically, and recorded on a recorder. Acetylcholine, 10^−5 M, was administered to induce contraction of the ileum specimen; after the contraction maximized, the bath was washed three times to purge out the acetylcholine. This operation was repeated at 10-minute intervals, and after the induced contraction stabilized two consecutive times, each test substance was administered. By comparing the contractile forces produced by acetylcholine and the test substance, the effect of the test substance was evaluated. One specimen was investigated only at one concentration of the test substance. […] From the results above, it was shown that the TRPA1 activator induced gut contraction.\nThe serotonin receptor antagonists used were pizotifen maleate (10 μM), a 5-HT1,2 receptor antagonist, ketanserin tartrate (0.1 μM), a 5-HT2 receptor antagonist, ramosetron hydrochloride (0.3 μM), a 5-HT3 receptor antagonist, and GR113808 (0.3 μM), a 5-HT4 receptor antagonist.\nThe inhibitory actions of various serotonin receptor antagonists on contraction upon stimulation with acrolein (300 μM) were investigated in the same manner. […] From the results above, it was shown that serotonin was released upon stimulation with acrolein to induce contraction via serotonin receptors such as 5-HT1 receptor and 5-HT3 receptor."}}, "data": [{"smiles": "C=CCN=C=S", "note": "[allyl isothiocyanate]", "values": [{"measurement": "elevation of fluorescence intensity (calcium inflow) in RIN14B cells", "setting": "RIN14B cells", "value": "an elevation of fluorescence intensity was detected"}, {"measurement": "change in intracellular calcium concentration", "setting": "[1]", "value": "responded specifically (elevation of intracellular calcium concentration)"}, {"measurement": "EC50", "setting": "guinea pig ileum; Cavia porcellus, read-out: EC50(μM) †", "value": 129, "unit": "µM"}, {"measurement": "Action", "setting": "guinea pig ileum; Magnus (guinea pig ileum)", "value": "Contraction"}]}]}
